Experimental data: ChEMBL document CHEMBL1275370, “The binding of β-d-glucopyranosyl-thiosemicarbazone derivatives to glycogen phosphorylase: A new class of inhibitors” (Bioorg Med Chem, 2010)

These compounds were tested against T1, Glycogen phosphorylase, muscle form (Oryctolagus cuniculus, UniProt P00489).
T1 sequence (P00489 whole entry): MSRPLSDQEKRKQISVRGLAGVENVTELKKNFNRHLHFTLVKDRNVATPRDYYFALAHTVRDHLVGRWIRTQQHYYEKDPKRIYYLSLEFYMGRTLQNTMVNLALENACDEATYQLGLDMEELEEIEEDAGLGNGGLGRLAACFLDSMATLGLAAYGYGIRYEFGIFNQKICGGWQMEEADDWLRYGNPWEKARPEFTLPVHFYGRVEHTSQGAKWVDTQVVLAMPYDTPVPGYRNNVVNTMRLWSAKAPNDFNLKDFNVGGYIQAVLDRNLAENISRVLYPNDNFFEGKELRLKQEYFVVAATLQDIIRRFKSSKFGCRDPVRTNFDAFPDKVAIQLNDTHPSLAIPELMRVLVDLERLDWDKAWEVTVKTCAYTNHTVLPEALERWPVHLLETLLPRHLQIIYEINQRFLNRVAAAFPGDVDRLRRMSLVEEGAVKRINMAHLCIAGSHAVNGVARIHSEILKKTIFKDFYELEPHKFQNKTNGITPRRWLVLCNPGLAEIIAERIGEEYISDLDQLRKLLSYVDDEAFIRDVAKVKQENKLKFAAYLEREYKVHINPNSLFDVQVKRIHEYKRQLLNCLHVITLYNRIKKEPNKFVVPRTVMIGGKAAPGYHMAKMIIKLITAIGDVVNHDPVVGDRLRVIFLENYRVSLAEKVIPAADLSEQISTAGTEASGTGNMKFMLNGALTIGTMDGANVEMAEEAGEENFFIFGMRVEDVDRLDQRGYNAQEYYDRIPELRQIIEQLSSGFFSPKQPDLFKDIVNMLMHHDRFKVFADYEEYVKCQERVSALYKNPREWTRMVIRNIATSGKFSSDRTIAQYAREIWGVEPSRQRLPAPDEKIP
Description: Inhibition of rabbit skeletal muscle glycogen phosphorylase b
`CC[C@H]1O[C@@H](NC(=S)N/N=C/c2ccc(O)cc2)[C@H](O)[C@@H](O)[C@@H]1O` gave an IC50 of 340 µM.
Compound `CC[C@H]1O[C@@H](NC(=S)N/N=C/c2ccncc2)[C@H](O)[C@@H](O)[C@@H]1O` has an IC50 of 200 µM.
With `CC[C@H]1O[C@@H](NC(=S)N/N=C/c2ccccc2[N+](=O)[O-])[C@H](O)[C@@H](O)[C@@H]1O` the IC50 was 484 µM.
Compound `CC[C@H]1O[C@@H](NC(=S)N/N=C/c2ccc(C)cc2)[C@H](O)[C@@H](O)[C@@H]1O` has an IC50 of 192 µM.
Compound `CC[C@H]1O[C@@H](NC(=S)N/N=C/c2ccc([N+](=O)[O-])cc2)[C@H](O)[C@@H](O)[C@@H]1O` has an IC50 of 25.7 µM.
With `CC[C@H]1O[C@@H](NC(=S)N/N=C/c2cccc(Cl)c2)[C@H](O)[C@@H](O)[C@@H]1O` the IC50 was 23.2 µM.
`CC[C@H]1O[C@@H](NC(=S)N/N=C/c2ccc(OC)cc2)[C@H](O)[C@@H](O)[C@@H]1O` showed an IC50 of 406 µM.
`CC[C@H]1O[C@@H](NC(=S)N/N=C/c2cccc(O)c2)[C@H](O)[C@@H](O)[C@@H]1O` showed an IC50 of 180 µM.
`CC[C@H]1O[C@@H](NC(=S)N/N=C/c2ccc(C(F)(F)F)cc2)[C@H](O)[C@@H](O)[C@@H]1O` showed an IC50 of 524 µM.
Work on `CC[C@H]1O[C@@H](NC(=S)N/N=C/c2ccc(Br)cc2)[C@H](O)[C@@H](O)[C@@H]1O` yielded an IC50 of 93.2 µM.
For `CC[C@H]1O[C@@H](NC(=S)N/N=C/c2ccccc2O)[C@H](O)[C@@H](O)[C@@H]1O`, the IC50 was 26.6 µM.
Compound `CC[C@H]1O[C@@H](NC(=S)N/N=C/c2ccccc2Cl)[C@H](O)[C@@H](O)[C@@H]1O` has an IC50 of 370 µM.
